Experimental data published in patent publication US10004701B2, “Methods and compositions for treating infection” (UNIVERSITY OF ROCHESTER, priority 2012, dated 2018).
Counter-ions that a name gives are not always drawn. Like-named read-outs stand apart in the source and are kept apart here.

Key:
Assay in all cases: AK assay 384-well format, Prestwick library screening
[1] = system: A. baumannii strain 98-37-09; type: cell-based, Acinetobacter baumannii; details: 50 μM final drug concentration; for fold induction at 50 µM: Acinetobacter baumannii, 983709, 3 h
E. cloacae = type: cell-based, Enterobacter cloacae; details: 50 μM final drug concentration; for fold induction at 50 µM: Enterobacter cloacae, 3 h
K. pneumoniae = type: cell-based, Klebsiella pneumoniae; details: 50 μM final drug concentration; for fold induction at 50 µM: Klebsiella pneumoniae, 3 h
[2] = system: S. aureus strain USA300-0114; type: cell-based, Staphylococcus aureus; details: 50 μM final drug concentration; for fold induction at 50 µM: Staphylococcus aureus, USA300, 3 h
E. faecium = type: cell-based, Enterococcus faecium; details: 50 μM final drug concentration; for fold induction at 50 µM: Enterococcus faecium, 3 h
P. aeruginosa = type: cell-based, Pseudomonas aeruginosa; details: 50 μM final drug concentration; for fold induction at 50 µM: Pseudomonas aeruginosa, 3 h
E. coli = type: cell-based, Escherichia coli; details: 50 μM final drug concentration; for fold induction at 50 µM: Escherichia coli, 3 h
[3] = planktonic, cutoff for positive 3-fold increase, read-out: AK-based Prestwick Library Screening Results, A. baumannii (fold increase in extracellular AK activity)
[4] = planktonic, cutoff for positive 3-fold increase, read-out: AK-based Prestwick Library Screening Results, E. cloacae (fold increase in extracellular AK activity)
[5] = planktonic, cutoff for positive 3-fold increase, read-out: AK-based Prestwick Library Screening Results, K. pneumoniae (fold increase in extracellular AK activity)
[6] = planktonic, cutoff for positive 3-fold increase, read-out: AK-based Prestwick Library Screening Results, S. aureus (fold increase in extracellular AK activity)
[7] = planktonic, cutoff for positive 3-fold increase, read-out: AK-based Prestwick Library Screening Results, E. faecium (fold increase in extracellular AK activity)
[8] = planktonic, cutoff for positive 3-fold increase, read-out: AK-based Prestwick Library Screening Results, P. aeruginosa (fold increase in extracellular AK activity)
[9] = planktonic, cutoff for positive 3-fold increase, read-out: AK-based Prestwick Library Screening Results, E. coli (fold increase in extracellular AK activity)
[10] = planktonic, cutoff for positive 3-fold increase

With `CCOC(=O)[N-]c1cn(N2CCOCC2)n[o+]1` [Molsidomine] the fold induction at 50 µM [1, 3] was 1.2, the fold induction at 50 µM (E. cloacae; [4]) was 1.5 and the fold induction at 50 µM (K. pneumoniae; [5]) was 1. The fold induction at 50 µM [2, 6] was 0.9, the fold induction at 50 µM (E. faecium; [7]) was 0.9 and the fold induction at 50 µM (P. aeruginosa; [8]) was 1.1. It also gave a fold induction at 50 µM (E. coli; [9]) of 1.4.
In the case of `CN1[C@@H]2CCC[C@H]1CC(=O)C2.Cl` [Pseudopelletierine hydrochloride], the “AK-based Prestwick Library Screening Results, A. baumannii (fold increase in extracellular AK activity)” value [1, 10] is reported as 1.2, the “AK-based Prestwick Library Screening Results, E. cloacae (fold increase in extracellular AK activity)” value (E. cloacae; [10]) is reported as 1.5 and the “AK-based Prestwick Library Screening Results, K. pneumoniae (fold increase in extracellular AK activity)” value (K. pneumoniae; [10]) is reported as 1.2. For the same compound, the “AK-based Prestwick Library Screening Results, S. aureus (fold increase in extracellular AK activity)” value [2, 10] was 1.0, the “AK-based Prestwick Library Screening Results, E. faecium (fold increase in extracellular AK activity)” value (E. faecium; [10]) was 0.9 and the “AK-based Prestwick Library Screening Results, P. aeruginosa (fold increase in extracellular AK activity)” value (P. aeruginosa; [10]) was 1.1. The “AK-based Prestwick Library Screening Results, E. coli (fold increase in extracellular AK activity)” value (E. coli; planktonic, […]) was 1.4.
Compound `COc1ccc2c(c1)[C@]13CCCC[C@@H]1[C@H](C2)N(C)CC3` has a fold induction at 50 µM ([1]; planktonic A. baumannii, […], read-out: AK-based Prestwick Library Screening Results, A. baumannii (increase in extracellular AK activity)) of 0.8, a fold induction at 50 µM (E. cloacae; planktonic E. cloacae, […], read-out: AK-based Prestwick Library Screening Results, E. cloacae (increase in extracellular AK activity)) of 1.1 and a fold induction at 50 µM (K. pneumoniae; planktonic K. pneumoniae, […], read-out: AK-based Prestwick Library Screening Results, K. pneumoniae (increase in extracellular AK activity)) of 0.7. The fold induction at 50 µM ([2]; planktonic S. aureus, […], read-out: AK-based Prestwick Library Screening Results, S. aureus (increase in extracellular AK activity)) was 0.7, the fold induction at 50 µM (E. faecium; planktonic E. faecium, […], read-out: AK-based Prestwick Library Screening Results, E. faecium (increase in extracellular AK activity)) was 0.9 and the fold induction at 50 µM (P. aeruginosa; planktonic P. aeruginosa, […], read-out: AK-based Prestwick Library Screening Results, P. aeruginosa (increase in extracellular AK activity)) was 0.8. The fold induction at 50 µM (E. coli; planktonic E. coli, […], read-out: AK-based Prestwick Library Screening Results, E. coli (increase in extracellular AK activity)) was 0.8.
In the case of `CC1=CC(=O)C2=C(C)CC[C@@H]3[C@H](OC(=O)[C@H]3C)[C@@H]12` [Leucomisine], the “AK-based Prestwick library screening result, A. baumannii (fold increase in extracellular AK activity)” value ([1]; planktonic A. baumannii, positive cutoff 3-fold increase) is reported as 1.0, the “AK-based Prestwick library screening result, E. cloacae (fold increase in extracellular AK activity)” value (E. cloacae; planktonic E. cloacae, positive cutoff 3-fold increase) is reported as 1.6 and the “AK-based Prestwick library screening result, K. pneumoniae (fold increase in extracellular AK activity)” value (K. pneumoniae; planktonic K. pneumoniae, positive cutoff 3-fold increase) is reported as 1.0. For the same compound, the “AK-based Prestwick library screening result, S. aureus (fold increase in extracellular AK activity)” value ([2]; planktonic S. aureus, positive cutoff 3-fold increase) was 0.9, the “AK-based Prestwick library screening result, E. faecium (fold increase in extracellular AK activity)” value (E. faecium; planktonic E. faecium, positive cutoff 3-fold increase) was 1.1 and the “AK-based Prestwick library screening result, P. aeruginosa (fold increase in extracellular AK activity)” value (P. aeruginosa; planktonic P. aeruginosa, positive cutoff 3-fold increase) was 1.1. For the same compound, the “AK-based Prestwick library screening result, E. coli (fold increase in extracellular AK activity)” value (E. coli; planktonic E. coli, […]) was 1.3.
For `Cc1c(C)c2c(c(C)c1O)CC[C@@](C)(CCC[C@H](C)CCC[C@H](C)CCCC(C)C)O2` [Tocopherol (R,S)], the “AK-based Prestwick Library Screening Results: A. baumannii (increase in extracellular AK activity)” value ([1]; planktonic A. baumannii, 384-well, cutoff for positive-scoring molecules 3-fold increase) was 0.4, the “AK-based Prestwick Library Screening Results: E. cloacae (increase in extracellular AK activity)” value (E. cloacae; planktonic E. cloacae, 384-well, cutoff for positive-scoring molecules 3-fold increase) was 0.4 and the “AK-based Prestwick Library Screening Results: K. pneumoniae (increase in extracellular AK activity)” value (K. pneumoniae; planktonic K. pneumoniae, 384-well, cutoff for positive-scoring molecules 3-fold increase) was 0.4. For the same compound, the “AK-based Prestwick Library Screening Results: S. aureus (increase in extracellular AK activity)” value ([2]; planktonic S. aureus, 384-well, cutoff for positive-scoring molecules 3-fold increase) was 0.4, the “AK-based Prestwick Library Screening Results: E. faecium (increase in extracellular AK activity)” value (E. faecium; planktonic E. faecium, 384-well, cutoff for positive-scoring molecules 3-fold increase) was 0.9 and the “AK-based Prestwick Library Screening Results: P. aeruginosa (increase in extracellular AK activity)” value (P. aeruginosa; planktonic P. aeruginosa, 384-well, cutoff for positive-scoring molecules 3-fold increase) was 0.4. For the same compound, the “AK-based Prestwick Library Screening Results: E. coli (increase in extracellular AK activity)” value (E. coli; planktonic E. coli, 384-well, cutoff for positive-scoring molecules 3-fold increase) was 0.6.
`Cc1cccc(CN2CCN(C(c3ccccc3)c3ccc(Cl)cc3)CC2)c1` (stereo not drawn) [Meclozine dihydrochloride] showed a fold induction at 50 µM [1, 3] of 1.9, a fold induction at 50 µM (E. cloacae; [4]) of 1.4 and a fold induction at 50 µM (K. pneumoniae; [5]) of 0.9. The fold induction at 50 µM [2, 6] was 2.1, the fold induction at 50 µM (E. faecium; [7]) was 1.2 and the fold induction at 50 µM (P. aeruginosa; [8]) was 1.2. For the same compound, the fold induction at 50 µM (E. coli; [9]) was 1.2.
`CC[C@H]1OC(=O)[C@H](C)[C@@H](O[C@H]2C[C@@](C)(OC)[C@@H](O)[C@H](C)O2)[C@H](C)[C@@H](O[C@@H]2O[C@H](C)C[C@H](N(C)C)[C@H]2O)[C@](C)(O)C[C@@H](C)[C@@H]2N[C@@H](COCCOC)O[C@H]([C@H]2C)[C@]1(C)O` [Dirithromycin] gave a fold induction at 50 µM [1, 3] of 1.8, a fold induction at 50 µM (E. cloacae; [4]) of 1.5 and a fold induction at 50 µM (K. pneumoniae; [5]) of 1.2. For the same compound, the fold induction at 50 µM [2, 6] was 2.1, the fold induction at 50 µM (E. faecium; [7]) was 1.2 and the fold induction at 50 µM (P. aeruginosa; [8]) was 0.9. It also gave a fold induction at 50 µM (E. coli; [9]) of 1.1.
`CN1C2CC(=O)CC1C(O)C2` (stereo not drawn) [Compound 6-Hydroxytropinone] was tested, and the “AK-based Prestwick Library Screening Results, A. baumannii (fold increase in extracellular AK activity)” value ([1]; […]) was 0.5, the “AK-based Prestwick Library Screening Results, E. cloacae (fold increase in extracellular AK activity)” value (E. cloacae; […]) was 0.4 and the “AK-based Prestwick Library Screening Results, K. pneumoniae (fold increase in extracellular AK activity)” value (K. pneumoniae; […]) was 0.5. For the same compound, the “AK-based Prestwick Library Screening Results, S. aureus (fold increase in extracellular AK activity)” value ([2]; […]) was 0.4, the “AK-based Prestwick Library Screening Results, E. faecium (fold increase in extracellular AK activity)” value (E. faecium; […]) was 0.9 and the “AK-based Prestwick Library Screening Results, P. aeruginosa (fold increase in extracellular AK activity)” value (P. aeruginosa; […]) was 0.4. For the same compound, the “AK-based Prestwick Library Screening Results, E. coli (fold increase in extracellular AK activity)” value (E. coli; […]) was 0.5.
`CCCOc1ccc(C(=O)OCCN(CC)CC)cc1N` [Proparacaine hydrochloride] was tested, and the fold induction at 50 µM ([1]; cutoff for positive-scoring molecules 3-fold increase, read-out: AK-based Prestwick Library Screening Results, A. baumannii (fold increase in extracellular AK activity)) was 1.4, the fold induction at 50 µM (E. cloacae; cutoff for positive-scoring molecules 3-fold increase, read-out: AK-based Prestwick Library Screening Results, E. cloacae (fold increase in extracellular AK activity)) was 1.2 and the fold induction at 50 µM (K. pneumoniae; cutoff for positive-scoring molecules 3-fold increase, read-out: AK-based Prestwick Library Screening Results, K. pneumoniae (fold increase in extracellular AK activity)) was 1.1. It also gave a fold induction at 50 µM ([2]; cutoff for positive-scoring molecules 3-fold increase, read-out: AK-based Prestwick Library Screening Results, S. aureus (fold increase in extracellular AK activity)) of 1.2, a fold induction at 50 µM (E. faecium; cutoff for positive-scoring molecules 3-fold increase, read-out: AK-based Prestwick Library Screening Results, E. faecium (fold increase in extracellular AK activity)) of 1 and a fold induction at 50 µM (P. aeruginosa; cutoff for positive-scoring molecules 3-fold increase, read-out: AK-based Prestwick Library Screening Results, P. aeruginosa (fold increase in extracellular AK activity)) of 1.1. It also gave a fold induction at 50 µM (E. coli; cutoff for positive-scoring molecules 3-fold increase, read-out: AK-based Prestwick Library Screening Results, E. coli (fold increase in extracellular AK activity)) of 1.3.
For `CN(C)Cc1c[nH]c2ccccc12` [Gramine], the fold induction at 50 µM [1, 3] was 1.3, the fold induction at 50 µM (E. cloacae; [4]) was 1.5 and the fold induction at 50 µM (K. pneumoniae; [5]) was 1. It also gave a fold induction at 50 µM [2, 6] of 1.3, a fold induction at 50 µM (E. faecium; [7]) of 1 and a fold induction at 50 µM (P. aeruginosa; [8]) of 1.1. The fold induction at 50 µM (E. coli; [9]) was 1.2.
With `COc1ccc(NS(=O)(=O)c2ccc(N)cc2)nn1` [Sulfamethoxypyridazine] the fold induction at 50 µM [1, 3] was 0.7, the fold induction at 50 µM (E. cloacae; [4]) was 0.3 and the fold induction at 50 µM (K. pneumoniae; [5]) was 0.5. For the same compound, the fold induction at 50 µM [2, 6] was 0.4, the fold induction at 50 µM (E. faecium; [7]) was 0.9 and the fold induction at 50 µM (P. aeruginosa; [8]) was 0.3. It also gave a fold induction at 50 µM (E. coli; [9]) of 0.5.
In the case of `COc1ccc2c3c([nH]c2c1)C(C)=NCC3` [Harmaline hydrochloride dihydrate], the fold induction at 50 µM ([1]; planktonic, […], read-out: AK-based Prestwick Library Screening Results, A. baumannii (fold increase in extracellular AK activity)) is reported as 1, the fold induction at 50 µM (E. cloacae; planktonic, […], read-out: AK-based Prestwick Library Screening Results, E. cloacae (fold increase in extracellular AK activity)) is reported as 1.3 and the fold induction at 50 µM (K. pneumoniae; planktonic, […], read-out: AK-based Prestwick Library Screening Results, K. pneumoniae (fold increase in extracellular AK activity)) is reported as 0.9. It also gave a fold induction at 50 µM ([2]; planktonic, […], read-out: AK-based Prestwick Library Screening Results, S. aureus (fold increase in extracellular AK activity)) of 1.4, a fold induction at 50 µM (E. faecium; planktonic, […], read-out: AK-based Prestwick Library Screening Results, E. faecium (fold increase in extracellular AK activity)) of 1 and a fold induction at 50 µM (P. aeruginosa; planktonic, […], read-out: AK-based Prestwick Library Screening Results, P. aeruginosa (fold increase in extracellular AK activity)) of 1. The fold induction at 50 µM (E. coli; planktonic, […], read-out: AK-based Prestwick Library Screening Results, E. coli (fold increase in extracellular AK activity)) was 1.1.
